“Also recorded” adds a separate entry of the source.
Key:
[1] = Drug release from loaded Silastic tubing in culture media (LC-MS/MS); assay type: physicochemical; details: for drug transfer from Silastic tubing: Silastic tubing depot approach
Description: (§1) Each sealed (10 cm) tube was immersed into a 10 cm culture tube containing 5 mL culture media (Dulbecco's Modified Eagle's medium (DMEM)+10% fetal bovine serum (FBS)+penicillin and streptomycin) approximating interstitial tissue surrounding the breast tissue. These tubes were set on a rocker in an incubator at 37° C. for 1, 2, 5, 10, 15, 21 and 30 days. After each time point media was collected and stored at −80° C. for further analysis for western blotting, viability/proliferation assay by MTS (3-(4,5-dimethylthiazol-2-yl)-5-(3-carboxymethoxyphenyl)-2-(4-sulfophenyl)-2H-tetrazolium) and quantitation by liquid chromatography-tandem mass spectrometry (LC-MS/MS). Additional iteration was to perform repeated washes on the same sealed tube and collect the culture medium at days 1, 2, 5, 10, 15, 21, and 30.
(§2) A validated LC-MS/MS method was used for quantitation of fulvestrant. Sample was prepared by liquid-liquid extraction procedures with n-hexane-isopropanol (90:10, v/v). Extracts were concentrated (using a nitrogen stream at room temperature) and […] with 2 volumes of mobile phase buffer, and injected into a Sciex ultra performance liquid chromatorgraphy (UPLC) coupled with a Sciex API 5000™ triple quadrupole mass spectrometer. Data was acquired and analyzed by Analyst® MS software.
Media was harvested semi-weekly (84 hrs).

[2] = system: progesterone receptor (PgR) mRNA; test: Progesterone receptor mRNA by qRT-PCR in MCF7 cells treated with medium containing released E2; assay type: cell-based; details: estradiol released from Silastic tubing into culture medium, MCF7 cells treated 24 hours
Description: The effect of estradiol released from Silastic® tubing loaded with estradiol and placed in culture medium was monitored, using conditions similar to that described in Example 2.
FIG. 23: Drug (E2) was loaded into 3 independent silastic tubes, dried, and sealed before incubating them in tissue culture medium for the indicated number of days. The tubes were then removed and MCF7 cells were treated with the medium. For the E2 experiment, MCF7 cells were first depleted of E2 by growing for 48 hours in FBS stripped media. Then, after 24 hours of treatment with media containing released E2, cells were harvested and progesterone receptor mRNA was quantified by quantitative real-time (qRT)-polymerase chain reaction (PCR) using TaqMan® probes from Applied Biosystems. As controls, MCF7 cells untreated and treated directly with 10 nM E2 were run.

[3] = system: MCF7 ER-positive breast cancer cells; test: MTS viability/proliferation assay of MCF7 cells; assay type: cell-based
Description: as §1
(§3) MCF-7 culture were propagated and seeded in 6 cm dishes at 300,000 cells per dish and allowed to adhere overnight as a monolayer. […] The drug concentrations and biological effects of the drug eluted from specific tubes were evaluated by Mass spectroscopy, Western Blot analysis and antiproliferative methods after exposure for 3 days.
At the end of the exposure, medium was replaced by MTS dye diluted (200 μL per well) in culture medium and incubated for up to 2 hours at 37° C. Optical density (490 nm) at the end of the time points (1, 1.5 and 2 hours) was measure and plotted as a ratio of absorbance (day/untreated).
Media containing tubing released drug at respective times was then added to cultured MCF7 ER-positive breast cancer cells and grown for 72 hours.
(§4) The medium was then used to culture MCF7 cells for 72 h, and the cells were assayed for proliferation by MTS assay (Panel A) and harvested for protein and western blotted for ER and PR expression (Panel B).

[4] = target: T1, estrogen receptor (ER) (Homo sapiens, UniProt P03372); test: Western blot for ER and PR expression in MCF7 cells; assay type: cell-based
T1 sequence (P03372 1-595): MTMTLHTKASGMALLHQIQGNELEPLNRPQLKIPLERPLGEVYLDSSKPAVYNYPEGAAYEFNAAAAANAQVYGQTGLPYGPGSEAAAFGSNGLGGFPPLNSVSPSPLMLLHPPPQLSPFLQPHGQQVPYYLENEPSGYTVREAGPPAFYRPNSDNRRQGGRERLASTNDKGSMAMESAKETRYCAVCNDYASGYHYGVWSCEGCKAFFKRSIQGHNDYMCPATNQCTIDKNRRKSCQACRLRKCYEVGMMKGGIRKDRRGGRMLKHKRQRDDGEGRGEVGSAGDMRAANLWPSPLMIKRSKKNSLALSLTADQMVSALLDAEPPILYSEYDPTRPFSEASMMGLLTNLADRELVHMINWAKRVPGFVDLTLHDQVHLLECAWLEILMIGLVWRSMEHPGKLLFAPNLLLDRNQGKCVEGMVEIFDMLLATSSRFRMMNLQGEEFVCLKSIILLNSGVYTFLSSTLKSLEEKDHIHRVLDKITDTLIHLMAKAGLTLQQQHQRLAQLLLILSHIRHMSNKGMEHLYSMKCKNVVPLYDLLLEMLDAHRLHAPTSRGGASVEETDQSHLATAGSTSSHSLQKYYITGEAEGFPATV
Description: as §1, §3, §4

[5] = Drug release from loaded Silastic tubing in saline (LC-MS/MS); assay type: physicochemical
Description: Every 84 hours the saline was collected and replaced with fresh saline.
as §2
Every 84 hours, saline was collected and replaced with fresh saline. Fulvestrant was quantified in collected saline by liquid chromatography mass spectrometry.

[6] = Fulvestrant level in blood and mammary tissue of mice with Silastic implant; assay type: in vivo, CD-1 female mice; details: 2 cm RX50 silastic tubing, 0.076 mg/cm dry fulvestrant, adjacent to inguinal mammary fat pad
Description: (§5) Mice were monitored for body weight loss, activity, adequate grooming, and general behavior daily for the first week, followed by alternate days up to […]. Mice were euthanized and blood and organs were collected after 1, 2, 3, 4, 6 and 9 weeks (FIGS. 21 and 22).
Blood from anaesthetized CD-1 female mice were collected in Vacutainer® tubes coated with K2 ethylenediaminetetraacetic acid (EDTA) via cardiac puncture. Plasma was separated by centrifugation at 6,000×g for 10 minutes and stored at −80° C. […] Harvested tissue was homogenized in saline on ice and then subjected to liquid-liquid phase extraction and evaluated for their levels of fulvestrant by LC-MS/MS as described above.
After the indicated number of weeks the mice were euthanized and tissue was harvested.

[7] = Visual examination of organs for overt pathology in implanted mice; assay type: in vivo, CD-1 female mice; details: Silastic depot with dry fulvestrant implanted subcutaneously, 9 week period
Description: as §5

[8] = distribution coefficient between water and octanol; cited from earlier work
[9] = in 10% ethanol, 10% benzyl alcohol, 15% benzyl benzoate, and to 100% with castor oil (Faslodex®); cited from earlier work
[10] = MCF7 cells treated directly with 100 nM fulvestrant (positive control)

For 4-hydroxytamoxifen, the “drug transfer from Silastic tubing” value [1] was “amenable to drug transfer”.
For C[C@]12CC[C@@H]3c4ccc(O)cc4CC[C@H]3[C@@H]1CC[C@@H]2O [estradiol], the “duration of sustained increase in progesterone receptor (PgR) mRNA expression” value [2] was “up to 15 days”.
In the case of C[C@]12CC[C@@H]3c4ccc(O)cc4C[C@@H](CCCCCCCCC[S+]([O-])CCCC(F)(F)C(F)(F)F)[C@H]3[C@@H]1CC[C@@H]2O (stereo partly shown) [fulvestrant], the cell growth [3, 10] is reported as “arrest cell growth”, the “tube equilibration time sufficient for growth inhibition and ER down regulation comparable to 100 nM fulvestrant” value ([3]; Silastic tubing 9 cm, 0.076 mg/cm dry fulvestrant, in culture media) is reported as 2 to 5 days and the antiproliferative effects ([3]; fulvestrant added directly, concentration curves 10-50 nM and up to 10 μM, 72 hours) is reported as “sufficient to block estrogen receptor signaling and proliferation”. The “growth inhibition and estrogen receptor down regulation” value ([3]; medium with fulvestrant released from Silastic tubing (0.076 mg/cm dry fulvestrant), MCF7 cells 72 h) was “comparable to cells directly treated with fulvestrant (100 nM); also recorded: sufficient to abrogate ER signaling and reduce cell proliferation”, the ER expression [4, 10] was “sufficient to down regulate ER expression” and the “duration of consistent weekly fulvestrant release, as measured by ER and PR down regulation” value ([4]; weekly release from Silastic tubing, cell culture models) was “more than 4 weeks”. For the same compound, the “duration of sustained release into culture medium” value ([1]; fulvestrant loaded Silastic tubing, media harvested semi-weekly (84 hrs), LC-MS/MS) was “up to 22 weeks”, the “extrapolated duration of release” value ([5]; based on rate of release and amount of fulvestrant in the device) was “exceeds 10 years” and the “duration of steady release” value ([5]; saline, 37 C) was “exceeding 7 months”. The “rate of fulvestrant released” value ([5]; saline, 37 C, after 5 weeks, average) was 7.77 ng/cm tubing*day, the “fulvestrant in mammary tissue” value ([6]; all mice) was “significant fulvestrant was detectable” and the fulvestrant in blood ([6]; weeks 1-9, all but one mouse at week 4) was under 4 nM. The “overt pathology of organs (color, size, general condition)” value [7] was “none”, the “log D” value [8] was “around 8.47” and the solubility [9] was “up to 50 mg/mL”.
For O=C(c1ccc(OCCN2CCCCC2)cc1)c1c(-c2ccc(O)cc2)sc2cc(O)ccc12 [raloxifene], the “drug transfer from Silastic tubing” value [1] is listed as “amenable to drug transfer” and the “log D” value [8] is listed as “around 5.406”.

From US11918770B2, “Implants for localized drug delivery and methods of use thereof” (The Regents of the University of California, priority 2014, dated 2024)
